Calls of active or inactive are those of the source. No cut-off for these calls is given here.
What was measured:
Mast cell = assay: Induction of rat mast cells degranulation activity at 100 uM incubated for 30 mins; assay type: functional, tissue-based
[1] = target: T1, Proprotein convertase subtilisin/kexin type 9 (Homo sapiens, UniProt Q8NBP7); assay: Inhibition of human PCSK9 using Alexa Fluor […] as substrate incubated for 2 hrs by FRET plus assay
[2] = target: T1, Proprotein convertase subtilisin/kexin type 9; assay: Inhibition of human PCSK9 using Alexa Fluor […] as substrate incubated for 2 hrs by FRET assay
[3] = Half life in Wistar Han rat at 1 mg/kg, iv measured upto 24 hrs by LC-MS/MS analysis; assay type: ADME, organism-based; settings: in vivo
[4] = Tmax in Wistar Han rat at 5 mg/kg, id measured upto 24 hrs by LC-MS/MS analysis; assay type: ADME, organism-based; settings: in vivo
Bos taurus = species on record: Bos taurus; assay: Stability of the compound assessed as bovine pancreas alpha chymotrypsin-mediated parent compound depletion by measuring parent compound remaining after 1 hr by LC-MS/MS analysis
[5] = AUC(0 to infinity) in Wistar Han rat at 1 mg/kg, iv measured upto 24 hrs by LC-MS/MS analysis; assay type: ADME, organism-based; design: route intravenous, dose 1 mg/kg, time <=24; settings: in vivo
[6] = AUC(0 to infinity) in Wistar Han rat at 5 mg/kg, id measured upto 24 hrs by LC-MS/MS analysis; assay type: ADME, organism-based; design: dose 5 mg/kg, time <=24; settings: in vivo
[7] = Unbound clearance in Wistar Han rat at 1 mg/kg, iv measured upto 24 hrs by LC-MS/MS analysis; assay type: ADME, organism-based; settings: in vivo
Sus scrofa [8] = species on record: Sus scrofa; assay: Stability of the compound assessed as porcine pepsin-mediated parent compound depletion by measuring parent compound remaining after 1 hr by LC-MS/MS analysis
[9] = Cmax in Wistar Han rat at 5 mg/kg, id measured upto 24 hrs by LC-MS/MS analysis; assay type: ADME, organism-based; design: dose 5 mg/kg, time <=24; settings: in vivo
[10] = AUC extrapolated in Wistar Han rat at 5 mg/kg, id measured upto 24 hrs by LC-MS/MS analysis; assay type: ADME, organism-based; settings: in vivo, other
[11] = target: T1, Proprotein convertase subtilisin/kexin type 9; assay: Inhibition of human PCSK9 using Alexa Fluor […] as substrate incubated for 2 hrs by FRET ultra assay
[12] = Stability of the compound assessed as bovine pancreatic trypsin-mediated parent compound depletion by measuring parent compound remaining after 1 hr by LC-MS/MS analysis; assay type: ADME, Bos taurus; settings: cattle, read-out: Stability
Sus scrofa [13] = species on record: Sus scrofa; assay: Stability of the compound assessed as porcine pancreatic elastase-mediated parent compound depletion by measuring parent compound remaining after 1 hr by LC-MS/MS analysis
[14] = Bioavailability in Wistar Han rat at 5 mg/kg, id measured upto 24 hrs by LC-MS/MS analysis; assay type: ADME, organism-based; settings: in vivo
[15] = Clearance in Wistar Han rat at 1 mg/kg, iv measured upto 24 hrs by LC-MS/MS analysis; assay type: ADME, organism-based; settings: in vivo
[16] = Protein binding in Wistar Han rat at 1 mg/kg, iv measured upto 24 hrs by LC-MS/MS analysis; assay type: ADME, organism-based; settings: in vivo, read-out: PB (converted)
[17] = Volume of distribution at steady state in Wistar Han rat at 1 mg/kg, iv measured upto 24 hrs by LC-MS/MS analysis; assay type: ADME, organism-based; settings: in vivo, read-out: Vdss
[18] = target: T2, Solute carrier organic anion transporter family member 1B1 (Homo sapiens, UniProt Q9Y6L6); assay: Inhibition of OATP1B1 (unknown origin) expressed in HEK293 cells assessed as reduction in OATP 1B1-mediated [3H]-pitavastatin uptake preincubated for 30 mins followed by [3H]-pitavastatin addition and measured after 2 mins by liquid scintillation analysis; assay type: cell-based
T2 sequence (Q9Y6L6 whole entry): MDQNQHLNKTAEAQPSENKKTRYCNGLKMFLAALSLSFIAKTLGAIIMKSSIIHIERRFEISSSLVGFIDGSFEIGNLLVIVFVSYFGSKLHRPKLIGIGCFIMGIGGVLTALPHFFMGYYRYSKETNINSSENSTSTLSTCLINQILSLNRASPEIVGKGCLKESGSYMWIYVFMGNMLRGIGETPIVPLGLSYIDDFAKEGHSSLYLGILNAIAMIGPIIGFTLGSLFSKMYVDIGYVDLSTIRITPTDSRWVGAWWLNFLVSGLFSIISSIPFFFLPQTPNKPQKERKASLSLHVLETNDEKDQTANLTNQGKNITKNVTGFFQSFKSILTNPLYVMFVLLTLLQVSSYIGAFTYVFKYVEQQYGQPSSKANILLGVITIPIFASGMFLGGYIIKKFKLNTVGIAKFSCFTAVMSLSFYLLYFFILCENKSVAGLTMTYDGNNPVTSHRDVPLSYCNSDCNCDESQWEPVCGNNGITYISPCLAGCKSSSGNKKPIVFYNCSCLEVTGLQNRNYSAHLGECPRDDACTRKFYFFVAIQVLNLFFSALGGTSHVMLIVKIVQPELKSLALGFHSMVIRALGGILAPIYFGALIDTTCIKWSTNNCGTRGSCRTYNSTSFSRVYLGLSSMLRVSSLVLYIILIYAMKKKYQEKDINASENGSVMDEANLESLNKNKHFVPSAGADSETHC

[19] = Half life in cynomolgus monkey at 0.2 mg/kg, iv measured upto 72 hrs by LC-MS/MS analysis; assay type: ADME, organism-based, Macaca fascicularis; settings: in vivo
[20] = AUC(0 to infinity) in cynomolgus monkey at 0.2 mg/kg, iv measured upto 72 hrs by LC-MS/MS analysis; assay type: ADME, organism-based, Macaca fascicularis; design: route intravenous, dose 0.2 mg/kg, time <=72; settings: in vivo
[21] = Unbound clearance in cynomolgus monkey at 0.2 mg/kg, iv measured upto 72 hrs by LC-MS/MS analysis; assay type: ADME, organism-based, Macaca fascicularis; settings: in vivo
[22] = Volume of distribution at steady state in cynomolgus monkey at 0.2 mg/kg, iv measured upto 72 hrs by LC-MS/MS analysis; assay type: ADME, organism-based, Macaca fascicularis; settings: in vivo, read-out: Vdss
[23] = Metabolic stability in cynomolgus monkey whole blood assessed as half life measured upto 6 hrs by LC-MS/MS analysis; assay type: ADME, tissue-based, Macaca fascicularis
[24] = Reduction in LDL-cholesterol levels in cynomolgus monkey at 0.2 mg/kg, iv after 48 hrs; assay type: functional, Macaca fascicularis; design: scale not given: the % may be the effect or the level left
[25] = Reduction in unbound PCSK9 levels in cynomolgus monkey at 0.2 mg/kg, iv after 24 to 48 hrs; assay type: functional, Macaca fascicularis; design: scale not given: the % may be the effect or the level left; settings: time 24-48 hrs
Macaca fascicularis = assay: Reduction in LDL-cholesterol levels in cynomolgus monkey at 0.2 mg/kg, iv after 4 weeks; assay type: functional, organism-based
[26] = Clearance in cynomolgus monkey at 0.2 mg/kg, iv measured upto 72 hrs by LC-MS/MS analysis; assay type: ADME, organism-based, Macaca fascicularis; settings: in vivo
[27] = Protein binding in cynomolgus monkey at 0.2 mg/kg, iv measured upto 72 hrs by LC-MS/MS analysis; assay type: ADME, organism-based, Macaca fascicularis; settings: in vivo, read-out: PB (converted)

T1 sequence (Q8NBP7 31-152 limits assumed): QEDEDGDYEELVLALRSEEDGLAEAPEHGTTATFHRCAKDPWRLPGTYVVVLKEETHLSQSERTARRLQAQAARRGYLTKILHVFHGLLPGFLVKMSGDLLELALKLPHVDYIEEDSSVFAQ
T1 sequence (Q8NBP7 153-692 limits assumed): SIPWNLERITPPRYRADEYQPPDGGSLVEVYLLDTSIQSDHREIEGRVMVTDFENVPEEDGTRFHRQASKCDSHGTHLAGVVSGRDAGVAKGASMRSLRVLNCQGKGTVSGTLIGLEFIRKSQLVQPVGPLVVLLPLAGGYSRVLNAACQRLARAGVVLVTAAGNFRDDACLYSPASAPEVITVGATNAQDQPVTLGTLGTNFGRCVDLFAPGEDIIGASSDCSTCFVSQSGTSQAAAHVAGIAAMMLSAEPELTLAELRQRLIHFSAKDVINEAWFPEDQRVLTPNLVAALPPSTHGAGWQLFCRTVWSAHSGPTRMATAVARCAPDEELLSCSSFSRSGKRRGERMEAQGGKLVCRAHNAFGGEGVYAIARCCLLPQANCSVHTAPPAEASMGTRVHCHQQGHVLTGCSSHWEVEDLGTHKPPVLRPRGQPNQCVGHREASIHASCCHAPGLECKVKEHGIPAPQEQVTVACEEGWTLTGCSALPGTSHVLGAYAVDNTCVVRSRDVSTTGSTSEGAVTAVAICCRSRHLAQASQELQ

For `COc1ccc(C[C@@H]2NC(=O)[C@H]([C@H](C)OC)NC(=O)[C@@H]3[C@@H]4CCN3C(=O)[C@H](Cc3c[nH]c5ccc(F)cc35)NC(=O)[C@H](Cc3cccc(c3)C/C=C/CO4)NC(=O)[C@H](C)NC(=O)[C@H](CN)NC(=O)CCSCc3cccc(c3)CSCCNC(=O)[C@]3(C)CCCN3C2=O)cc1`, the Activity (Mast cell) was “inactive”, the Ki [1] was 0.23 nM and the Ki [2] was 0.45 nM.

`COc1ccc(C[C@@H]2NC(=O)[C@H]([C@@H](C)O)NC(=O)[C@@H]3[C@@H]4CCN3C(=O)[C@H](Cc3c[nH]c5ccc(F)cc35)NC(=O)[C@H](Cc3cccc(c3)C/C=C\CO4)NC(=O)[C@@H](C)NC(=O)[C@H](C)NC(=O)CCSCc3cccc(c3)CSCCNC(=O)[C@]3(C)CCCN3C2=O)cc1` showed a Ki [2] of 4.66 nM.

Work on `COc1ccc(C[C@@H]2NC(=O)[C@H]([C@@H](C)O)NC(=O)[C@@H]3[C@@H]4CCN3C(=O)[C@@H]3Cc5cn(c6ccc(F)cc56)Cc5cn(nn5)-c5cc(cc(c5)CSCCC(=O)N[C@@H](CN)C(=O)N[C@H](C)C(=O)N[C@@H](Cc5cccc(c5)C/C=C/CO4)C(=O)N3)CSCCNC(=O)[C@]3(C)CCCN3C2=O)cc1` yielded a half-life [3] of 5.9 h, a Tmax [4] of 0.25 h and a Stability (Bos taurus) of 90%. For the same compound, the AUC(0-inf) [5] was 0.964 µM·h, the AUC(0-inf) [6] was 0.0215 µM·h and the Activity (Mast cell) was “inactive”. It also gave a CL free [7] of 85 mL/min/kg, a Stability (Sus scrofa [8]) of 100% and a Cmax [9] of 12.4 nM. For the same compound, the “%AUCextra” value [10] was 23.6%, the Ki [11] was 0.0094 nM and the remaining at 1 h [12] was 100%. The Stability (Sus scrofa [13]) was 96.5%, the bioavailability [14] was 0.45% and the clearance [15] was 12.3 mL/min/kg. It also gave a fraction unbound at 24 h [16] of 0.144, a Ki [1] of 0.00826 nM and a Ki [2] of under 0.129 nM. The Vd [17] was 3 L/kg and the EC50 [18] was 600 nM.

Work on `COc1ccc(C[C@@H]2NC(=O)[C@H]([C@@H](C)OC)NC(=O)[C@@H]3[C@@H]4CCN3C(=O)[C@H](Cc3c[nH]c5ccc(F)cc35)NC(=O)[C@H](Cc3cccc(c3)CCCCO4)NC(=O)[C@@H](C)NC(=O)[C@H](C)NC(=O)CCSCc3cccc(c3)CSCCNC(=O)[C@]3(C)CCCN3C2=O)cc1` yielded a Ki [2] of 2.17 nM.

In the case of `COc1ccc(C[C@@H]2NC(=O)[C@H]([C@@H](C)O)NC(=O)[C@@H]3[C@@H]4CCN3C(=O)[C@@H]3Cc5cn(c6ccc(F)cc56)Cc5cn(nn5)-c5cc(cc(c5)CSCCC(=O)N[C@@H](C)C(=O)N[C@H](CNC(=O)CCOCCOCC[N+](C)(C)C)C(=O)N[C@@H](Cc5cccc(c5)C/C=C/CO4)C(=O)N3)CSCCNC(=O)[C@]3(C)CCCN3C2=O)cc1`, the half-life [19] is reported as 10.1 h, the AUC(0-inf) [20] is reported as 0.762 µM·h and the Tmax [4] is reported as 0.3 h. The CL free [21] was 10.6 mL/min/kg, the Stability (Bos taurus) was 95.3% and the Vd [22] was 1.2 L/kg. The AUC(0-inf) [6] was 0.497 µM·h, the Activity (Mast cell) was “inactive” and the Stability (Sus scrofa [8]) was 99%. The half-life [23] was over 6 h, the Cmax [9] was 178 nM and the Activity [24] was over 50%. For the same compound, the “%AUCextra” value [10] was 3%, the Ki [11] was 0.00093 nM and the remaining at 1 h [12] was 100%. For the same compound, the Activity [25] was over 80%, the Stability (Sus scrofa [13]) was 92.6% and the bioavailability [14] was 1.4%. For the same compound, the Activity (Macaca fascicularis) was “inactive”, the Ki [1] was 0.00736 nM and the clearance [26] was 2.7 mL/min/kg. The Ki [2] was under 0.129 nM, the fraction unbound at 72 h [27] was 0.256 and the EC50 [18] was 2500 nM.

Compound `COc1ccc(C[C@@H]2NC(=O)[C@H]([C@@H](C)O)NC(=O)[C@@H]3[C@@H]4CCN3C(=O)[C@H](Cc3c[nH]c5ccc(F)cc35)NC(=O)[C@H](Cc3cccc(c3)C/C=C/CO4)NC(=O)[C@@H](C)NC(=O)[C@H](C)NC(=O)CCSCc3cccc(c3)CSCCNC(=O)[C@]3(C)CCCN3C2=O)cc1` has a Ki [1] of 0.25 nM and a Ki [2] of 0.43 nM.

For `COc1ccc(C[C@@H]2NC(=O)[C@H]([C@@H](C)OC)NC(=O)[C@@H]3[C@@H]4CCN3C(=O)[C@H](Cc3c[nH]c5ccc(F)cc35)NC(=O)[C@H](Cc3cccc(c3)C/C=C/CO4)NC(=O)[C@@H](CN)NC(=O)[C@H](C)NC(=O)CCSCc3cccc(c3)CSCCNC(=O)[C@]3(C)CCCN3C2=O)cc1`, the Ki [1] was 0.16 nM and the Ki [2] was 0.2 nM.
